Organism: Rattus norvegicus
Test: Open TG-GATES - Regimen: Daily Repeat
Format: toxicity, organism-based, Sprague-Dawley
Set-up: regimen Daily Repeat, gender Male, age 6 weeks
Conditions: in vivo, po, 0 mg/kg, route gavage, dose level Control; for APTT / Bas / Eos / Fbg / Hb / Ht / Lym / MCH / MCHC / MCV / Mono / Neu / PT / Plat / RBC / Ret / WBC: tissue Blood; for LIVER: tissue Liver; for A/G / ALP / ALT / AST / BUN / CRE / Ca / Cl / DBIL / GLC / IP / K / LDH / Na / PL / RALB / TBIL / TC / TG / TP / gamma-GTP: tissue Plasma

## O=[N+]([O-])c1ccc(O)c([N+](=O)[O-])c1 [2,4-DINITROPHENOL]
72 h, time 3 day
  TERMINAL_BW: 246.4 g
  APTT: 16.7 s
  Bas: 0%
  Eos: 1.2%
  Fbg: 265 mg/dL
  Hb: 12.8 g/dL
  Ht: 38.3%
  Lym: 74.4%
  MCH: 21.4 pg
  MCHC: 33.5%
  MCV: 64 fL
  Mono: 4.8%
  Neu: 19.8%
  PT: 11.6 s
  Plat: 131.4 x10_4/uL
  RBC: 599.4 x10_4/ul
  Ret: 6%
  WBC: 119.4 x10_2/uL
  LIVER: 11.9 g
  A/G: 2.3
  ALP: 1481 IU/L
  ALT: 33.8 IU/L
  AST: 62.6 IU/L
  BUN: 15.6 mg/dL
  CRE: 0.4 mg/dL
  Ca: 11.6 mg/dL
  Cl: 103.2 meq/L
  DBIL: 0.01 mg/dL
  GLC: 183 mg/dL
  IP: 7.4 mg/dL
  K: 4.7 meq/L
  LDH: 91.6 IU/L
  Na: 138.2 meq/L
  PL: 156.2 mg/dL
  RALB: 3.9 g/dL
  TBIL: 0.034 mg/dL
  TC: 84.2 mg/dL
  TG: 137 mg/dL
  TP: 5.6 g/dL
  gamma-GTP: 0.8 IU/L
[…], time 7 day
  TERMINAL_BW: 271.5 g
  APTT: 16 s
  Bas: 0%
  Eos: 1%
  Fbg: 247 mg/dL
  Hb: 13.5 g/dL
  Ht: 39.8%
  Lym: 77.2%
  MCH: 21.5 pg
  MCHC: 33.9%
  MCV: 63.4 fL
  Mono: 5%
  Neu: 16.8%
  PT: 11.6 s
  Plat: 133.8 x10_4/uL
  RBC: 629 x10_4/ul
  Ret: 5%
  WBC: 101.8 x10_2/uL
  LIVER: 13.1 g
  A/G: 2.2
  ALP: 1556.6 IU/L
  ALT: 38.6 IU/L
  AST: 68.8 IU/L
  BUN: 18.2 mg/dL
  CRE: 0.4 mg/dL
  Ca: 11.4 mg/dL
  Cl: 105.8 meq/L
  DBIL: 0.014 mg/dL
  GLC: 182.2 mg/dL
  IP: 7.7 mg/dL
  K: 4.7 meq/L
  LDH: 107 IU/L
  Na: 141.2 meq/L
  PL: 154.8 mg/dL
  RALB: 3.8 g/dL
  TBIL: 0.028 mg/dL
  TC: 80 mg/dL
  TG: 162.4 mg/dL
  TP: 5.5 g/dL
  gamma-GTP: 0.8 IU/L
[…], time 14 day
  TERMINAL_BW: 341.5 g
  APTT: 16.5 s
  Bas: 0%
  Eos: 1%
  Fbg: 243.2 mg/dL
  Hb: 13.8 g/dL
  Ht: 40.7%
  Lym: 73%
  MCH: 20.9 pg
  MCHC: 33.9%
  MCV: 61.7 fL
  Mono: 5%
  Neu: 21%
  PT: 11.6 s
  Plat: 130 x10_4/uL
  RBC: 660.8 x10_4/ul
  Ret: 3.9%
  WBC: 124.2 x10_2/uL
  LIVER: 16.5 g
  A/G: 2
  ALP: 1126.4 IU/L
  ALT: 33.4 IU/L
  AST: 59.6 IU/L
  BUN: 18.4 mg/dL
  CRE: 0.3 mg/dL
  Ca: 11.4 mg/dL
  Cl: 104.2 meq/L
  DBIL: 0.012 mg/dL
  GLC: 186 mg/dL
  IP: 7.4 mg/dL
  K: 4.6 meq/L
  LDH: 101.6 IU/L
  Na: 136.8 meq/L
  PL: 151.4 mg/dL
  RALB: 4 g/dL
  TBIL: 0.024 mg/dL
  TC: 72.8 mg/dL
  TG: 182 mg/dL
  TP: 6 g/dL
  gamma-GTP: 0 IU/L
[…], time 28 day
  TERMINAL_BW: 452.7 g
  APTT: 15.9 s
  Bas: 0%
  Eos: 1%
  Fbg: 278.4 mg/dL
  Hb: 14.8 g/dL
  Ht: 43.5%
  Lym: 78.4%
  MCH: 19.6 pg
  MCHC: 34%
  MCV: 57.7 fL
  Mono: 5.6%
  Neu: 15.4%
  PT: 11.6 s
  Plat: 117.2 x10_4/uL
  RBC: 754.6 x10_4/ul
  Ret: 2.8%
  WBC: 107.4 x10_2/uL
  LIVER: 19.9 g
  A/G: 1.8
  ALP: 930.8 IU/L
  ALT: 30.8 IU/L
  AST: 58.6 IU/L
  BUN: 20.2 mg/dL
  CRE: 0.5 mg/dL
  Ca: 11.2 mg/dL
  Cl: 103.4 meq/L
  DBIL: 0.016 mg/dL
  GLC: 195.4 mg/dL
  IP: 7.2 mg/dL
  K: 4.4 meq/L
  LDH: 108.8 IU/L
  Na: 140.6 meq/L
  PL: 161.6 mg/dL
  RALB: 4 g/dL
  TBIL: 0.036 mg/dL
  TC: 79.8 mg/dL
  TG: 228.8 mg/dL
  TP: 6.2 g/dL
  gamma-GTP: 0.4 IU/L

Source: ChEMBL document CHEMBL3885861, “Open TG-GATES”
